The test system of the assay is SMN protein. In words: cellular SMN ELISA (SMN protein elevation). The format is cell-based. The note with it: myoblast cell line from SMNdelta7 mouse model, 24 hours treatment; for SMN activity Fold: fold activation over DMSO control. The method, then: A cellular SMN ELISA was used to measure the effects of low molecular weight compounds on SMN protein elevation. Cells from a myoblast cell line derived from the SMNdelta7 mouse model (kind gift from Steve Burden, NYU) were seeded into a 384-well plate at a density of 3000 cells/well and treated with compounds for 24 hours. ELISA capture plates were prepared by coating 384-well plates (Immulon 4HBX) with 0.5 ug/mL of anti-SMN mAb (BD Science, Catalog number 610647) at 4° C. overnight. The plates were washed 5 times with 110 uL of PBS-Tween (0.05% Tween-20, PBST), blocked with 100 uL of 1% BSA in PBST for 2 hours and washed (5 times) with 100 uL of PBST. After 24 hours of compound treatment cells were lysed in a modified RIPA-buffer, on ice for 1 hour. 20 uL of lysate and 20 uL of 1% BSA were then added to the ELISA capture plates and incubated at 4° C. overnight. Plates were washed (5 times) with PBST and then incubated with 1:100 dilution of primary rabbit anti-SMN polyclonal antibody (Santa cruz, Catalog number SC-15320) at room temperature for 1 hour and subsequently washed (5 times) with 110 uL of PBST. This was followed by addition of 1:100 Goat anti-Rabbit IgG-HRP linked (Cell Signaling, Catalog number 7074) secondary antibody for 1 hour. Plates were then washed with PBST and incubated with 40 uL TMB substrate (Cell Signaling, Catalog number 7004L) at room temperature for 1-10 minutes with shaking. The reaction was stopped by addition of 40 uL of stop solution (Cell signaling, Catalog number 7002L) and absorption was measured at 450 nm. Data was reported as fold activation over DMSO control, and EC50.
ELISA assay condition 1: compound concentration range 20 nM-10 uM; ELISA assay condition 2: compound concentration 100 pM-10 uM.
Background: In an ELISA, binding on a coated surface is turned into a signal by an enzyme label.

Where [1] appears, read: ELISA condition 1: compound concentration range 20 nM-10 uM.
[2] abbreviates: ELISA condition 2: compound concentration 100 pM-10 uM.

The record followed here is patent US10195196B2, “1,4-disubstituted pyridazine analogs there of and methods for treating SMN-deficiency-related conditions” (NOVARTIS AG, priority 2012, dated 2019).

As a reminder, the EC50 is the concentration giving half of the maximal effect. The low end stands for higher potency in that assay, the high end for lower potency in that assay.

With `CN(c1ccc(-c2ccc(Cl)cc2O)nn1)C1CC(C)(C)N(C)C(C)(C)C1` [Example 3-2, 5-chloro-2-(6-(methyl(1,2,2,6,6-pentamethylpiperidin-4-yl)amino)pyridazin-3-yl)phenol], under setting [1], the EC50 worked out at 1070 nM and the “SMN activity Fold” value was 2.06 Fold.
On the same counts, the results for `CC1(C)CC(Nc2ccc(-c3cc4ccccc4cc3O)nn2)CC(C)(C)N1` [Example 3-3, 3-(6-(2,2,6,6-tetramethylpiperidin-4-ylamino)pyridazin-3-yl)naphthalen-2-ol] are 64 nM and 2.48 Fold.
For the compound `CN1C(C)(C)CC(Nc2ccc(-c3ccc(Cl)cc3O)nn2)CC1(C)C` [Example 3-4, 5-chloro-2-(6-(1,2,2,6,6-pentamethylpiperidin-4-ylamino)pyridazin-3-yl)phenol], under setting [1], the EC50 was found to be 620 nM and the “SMN activity Fold” value was determined as 2.03 Fold.
On the same counts, the results for `CN(c1ccc(-c2cc(C#N)ccc2O)nn1)C1CC(C)(C)NC(C)(C)C1` [Example 3-5, 4-hydroxy-3-(6-(methyl(2,2,6,6-tetramethylpiperidin-4-yl)amino)pyridazin-3-yl)benzonitrile] are 100 nM and 2.38 Fold.
`CC1(C)CC(Oc2ccc(-c3cc4ccccc4cc3O)nn2)CC(C)(C)N1` [Example 3-6, 3-[6-(2,2,6,6-tetramethyl-piperidin-4-yloxy)-pyridazin-3-yl]-naphthalen-2-ol]: under setting [2], a half-maximal response (EC50) required 110 nM and the “SMN activity Fold” value is 3.01 Fold.
With `CN(c1ccc(-c2cc(C(F)(F)F)ccc2O)nn1)C1CC(C)(C)NC(C)(C)C1` [Example 3-7, 2-{6-[methyl-(2,2,6,6-tetramethyl-piperidin-4-yl)-amino]-pyridazin-3-yl}-4-trifluoromethyl-phenol], under setting [1], a half-maximal response (EC50) required 4530 nM and the “SMN activity Fold” value turned out to be 2.67 Fold.
As to `CN(c1ccc(-c2cccc(F)c2O)nn1)C1CC(C)(C)NC(C)(C)C1` [Example 3-8, 2-fluoro-6-{6-[methyl-(2,2,6,6-tetramethyl-piperidin-4-yl)-amino]-pyridazin-3-yl}-phenol], under setting [2], the midpoint of the response, the EC50, lay at 1580 nM and the “SMN activity Fold” value was 2.72 Fold.
Taken in the same sequence, the figures for `COc1cc(O)c(-c2ccc(N(C)C3CC(C)(C)NC(C)(C)C3)nn2)c(OC)c1` [Example 3-9, 3,5-dimethoxy-2-{6-[methyl-(2,2,6,6-tetramethyl-piperidin-4-yl)-amino]-pyridazin-3-yl}-phenol] were 323 nM and 2.88 Fold.
On the same counts, the results for `COc1cc(O)c(-c2ccc(N(C)C3CC(C)(C)NC(C)(C)C3)nn2)cc1OC` [Example 3-10, 4,5-dimethoxy-2-{6-[methyl-(2,2,6,6-tetramethyl-piperidin-4-yl)-amino]-pyridazin-3-yl}-phenol] are 855 nM and 2.53 Fold.
On the same counts, the results for `COc1ccc(-c2ccc(N(C)C3CC(C)(C)NC(C)(C)C3)nn2)c(O)c1` [Example 3-11, 5-methoxy-2-{6-[methyl-(2,2,6,6-tetramethyl-piperidin-4-yl)-amino]-pyridazin-3-yl}-phenol] are 220 nM and 2.47 Fold.
Turning to `CN(c1ccc(-c2cc(F)c(F)cc2O)nn1)C1CC(C)(C)NC(C)(C)C1` [Example 3-12, 4,5-difluoro-2-{6-[methyl-(2,2,6,6-tetramethyl-piperidin-4-yl)-amino]-pyridazin-3-yl}-phenol], under setting [1], the EC50 is 129 nM and the “SMN activity Fold” value was found to be 2.70 Fold.
For the compound `C=CCc1c(O)ccc2cc(-c3ccc(N(C)C4CC(C)(C)NC(C)(C)C4)nn3)ccc12` [Example 6-1, 1-allyl-6-(6-(methyl(2,2,6,6-tetramethylpiperidin-4-yl)amino)pyridazin-3-yl)naphthalen-2-ol], under setting [2], it took 630 nM to reach a half-maximal effect (EC50) and the “SMN activity Fold” value turned out to be 2.04 Fold.
In the case of `CN1C(C)(C)CC(Nc2ccc(-c3cc4ccccc4s3)nn2)CC1(C)C` [Example 7-1, 6-(benzo[b]thiophen-2-yl)-N-(1,2,2,6,6-pentamethylpiperidin-4-yl)pyridazin-3-amine], under setting [1], the EC50 was found to be 2730 nM and the “SMN activity Fold” value is 2.54 Fold.
On the same counts, the results for `C=CCNC(=O)c1ccc(-c2ccc(N(C)C3CC(C)(C)NC(C)(C)C3)nn2)c(O)c1` [Example 8-1, N-allyl-3-hydroxy-4-(6-(methyl(2,2,6,6-tetramethylpiperidin-4-yl)amino)pyridazin-3-yl)benzamide] are 280 nM and 2.72 Fold.
`Cc1cnc(-c2ccc(-c3ccc(N(C)C4CC(C)(C)NC(C)(C)C4)nn3)c(O)c2)o1` [Example 10-1, 5-(5-methyl-oxazol-2-yl)-2-{6-[methyl-(2,2,6,6-tetramethyl-piperidin-4-yl)-amino]-pyridazin-3-yl}-phenol]: under setting [2], the EC50 was 31 nM and the “SMN activity Fold” value worked out at 2.99 Fold.
Taken in the same sequence, the figures for `CN(c1ccc(-c2ccc(-n3ccnc3)cc2O)nn1)C1CC(C)(C)NC(C)(C)C1` [Example 12-1, 5-(1H-imidazole-1-yl)-2-(6-(methyl(2,2,6,6-tetramethyl-piperidin-4-yl)amino)pyridazin-3-yl)phenol] were 4 nM and 3.13 Fold.
Take `CN(c1ccc(-c2ccc(-n3cc(N)cn3)cc2O)nn1)C1CC(C)(C)NC(C)(C)C1` [Example 13-1, 5-(4-amino-1H-pyrazole-1-yl)-2-(6-(methyl(2,2,6,6-tetramethylpiperidin-4-yl)amino)pyridazin-3-yl)phenol]: under setting [2], the response was half-maximal at 20 nM (EC50) and the “SMN activity Fold” value was 3.46 Fold.
Taken in the same sequence, the figures for `CN(c1ccc(-c2ccc(-c3cnn(CCN4CCOCC4)c3)cc2O)nn1)C1CC(C)(C)NC(C)(C)C1` [Example 16-1, 2-(6-(methyl(2,2,6,6-tetramethylpiperidin-4-yl)amino)pyridazin-3-yl)-5-(1-(2-morpholino-ethyl)-1H-pyrazol-4-yl)phenol] were 77 nM and 2.66 Fold.
On the same counts, the results for `CN(c1ccc(-c2ccc(-c3cnn(C)c3)cc2O)nn1)C1CC(C)(C)NC(C)(C)C1` [Example 16-2, 2-(6-(methyl(2,2,6,6-tetramethylpiperidin-4-yl)amino)pyridazin-3-yl)-5-(1-methyl-1H-pyrazol-4-yl)phenol] are 15 nM and 3.21 Fold.
With `CN(c1ccc(-c2ccc(-n3nccc3N)cc2O)nn1)C1CC(C)(C)NC(C)(C)C1` [Example 16-3, 5-(5-amino-1H-pyrazol-1-yl)-2-(6-(methyl-(2,2,6,6-tetramethyl-piperidin-4-yl)amino)pyridazin-3-yl)phenol], under setting [2], the response was half-maximal at 625 nM (EC50) and the “SMN activity Fold” value was found to be 2.39 Fold.
With `CN(c1ccc(-c2cc(-n3cccn3)ccc2O)nn1)C1CC(C)(C)NC(C)(C)C1` [Example 16-4, 2-(6-(methyl(2,2,6,6-tetramethylpiperidin-4-yl)amino)pyridazin-3-yl)-4-(1H-pyrazol-1-yl)phenol], under setting [2], the midpoint of the response, the EC50, lay at 94 nM and the “SMN activity Fold” value turned out to be 2.71 Fold.
On the same counts, the results for `CC1(C)CC(N(CCO)c2ccc(-c3ccc(-n4cccn4)cc3O)nn2)CC(C)(C)N1` [Example 16-5, 2-{6-[(2-hydroxy-ethyl)-(2,2,6,6-tetramethyl-piperidin-4-yl)-amino]-pyridazin-3-yl}-5-pyrazol-1-yl-phenol] are 24 nM and 2.41 Fold.
Regarding `C[C@@H]1C[C@H](Oc2ccc(-c3ccc(-n4cccn4)cc3O)nn2)C[C@H](C)N1` [Example 17-2, 2-(6-(((2S,4R,6R)-2,6-Dimethylpiperidin-4-yl)oxy)pyridazin-3-yl)-5-(1H-pyrazol-1-yl)phenol], under setting [1], the EC50 was 70 nM and the “SMN activity Fold” value was determined as 2.62 Fold.
Consider `Oc1cc(-n2cccn2)ccc1-c1ccc(OC2CCNC2)nn1` (stereo not shown) [Example 17-5, 5-(1H-pyrazol-1-yl)-2-(6-(pyrrolidin-3-yloxy)pyridazin-3-yl)phenol], for which, under setting [2], the EC50 was 2440 nM and the “SMN activity Fold” value turned out to be 2.78 Fold.
Taken in the same sequence, the figures for `Oc1cc(-n2cccn2)ccc1-c1ccc(OC2CCNCC2F)nn1` (stereo not shown) [Example 17-10, 2-(6-((3-fluoropiperidin-4-yl)oxy)pyridazin-3-yl)-5-(1H-pyrazol-1-yl)-phenol] were 945 nM and 2.03 Fold.
On the same counts, the results for `CN1C(C)(C)CC(Oc2ccc(-c3ccc(-n4cccn4)cc3O)nn2)CC1(C)C` [Example 17-11, 2-[6-(1,2,2,6,6-pentamethyl-piperidin-4-yloxy)-pyridazin-3-yl]-5-pyrazol-1-yl-phenol] are 665 nM and 3.01 Fold.
